Patent publication US7371779B2, “Synergistic compositions of N-acylhomoserine lactones and 4-quinolones” (The Secretary of State for Defense Science and Technology, priority 2001, dated 2008)
“Also recorded” adds a separate entry of the source. Where two headings read alike, the source gives them in different places.

What was measured:
[1] = test system: murine spleen cells; conditions: Infection and Immunity vol.66 no.1, 1998; cited from earlier work
[2] = test system: TNFα; conditions: Infection and Immunity vol.66 no.1, 1998; cited from earlier work
[3] = test system: human PBMC; assay: ConA mitogen-stimulated proliferation of human PBMC ([3H]-thymidine incorporation); format: cell-based; conditions: for IC50: Experiment II, read-out: IC50 in inhibition of ConA induced cell proliferation of PBMC
Procedure: Blood specimens were obtained with consent from healthy human volunteers. Human peripheral blood mononuclear cells (PBMC) were isolated from heparinised whole blood by buoyant density centrifugation over Histopaque 1077 (Sigma, Poole, UK) at 600 g for 20 minutes. PBMC harvested from the ‘buffy’ layers were washed twice with RPMI 1640 medium and resuspended in CTCM. […] Human PBMC were incubated for 48 h at 37° C. in 5% CO2-air, followed by pulsing with 0.25 μCi [^3H]-thymidine (see above). After a further incubation of 24 h cells were harvested onto fibreglass filters and then counted in the presence of MicroScint-O with the Packard TopCount.
Concanavalin induced cell proliferation of human peripheral blood mononuclear cells (PBMC) was tracked, as described in I above, by a measurement of counts per minute using the scintillation counter. The inhibitory effect of an HSL compound being tested on cell proliferation was indicated by a reduction in counts per minute. […] Columns B, C and D represent different sources of human PBMC samples used.
Plots of counts per minute (cpm) against the concentration of the quorum sensing molecules and the vehicle are shown in FIG. 11.

[4] = test system: IL-2; assay: IL-2 production from anti-CD3 and anti-CD28 stimulated hPBMC (sandwich ELISA); format: cell-based, human; conditions: four donors, 24 h supernatants
Procedure: Anti-CD3 and anti-CD28 antibodies were used to assess the effect of quorum sensing signal molecules (PQS, OdDHL and OHHL) on T-cell proliferation and IL-2 secretion. Proliferation was assessed by the incorporation of [^3H]-thymidine into the DNA of PBMC and the release of cytokines in the culture supernatants was determined by ‘sandwich’ ELISA. Blood specimens were obtained with consent from four healthy human volunteers (aged between 20 and 50 years). Human PBMC were isolated from heparinised whole blood by buoyant density centrifugation over Histopaque 1077 (Sigma, Poole, UK) at 600 g for 20 minutes. […] Following the addition of 25 μl of scintillant (MicroScint-O™; Packard Bioscience Ltd. UK) to each well in the filter plates, the radioactivity in the filters was measured with a β-scintillation counter (TopCount™, Packard Bioscience Ltd, UK) according to manufacturer's specifications. […]
When T cells in hPBMC are challenged with anti-CD3 and anti-CD28 antibodies, the cytokine IL-2 is released into the culture supernatants. The levels of cytokine produced in the culture supernatants after 24 h were determined in a ‘sandwich’ ELISA. […] Following four washes, the bound biotinylated antibody was detected with 50 μl of a 1:1,000 dilution of streptavidin-peroxidase (BD Pharmingen, UK). […]

Compound	inhibition of ConA mitogen stimulated proliferation of murine spleen cells [1]	inhibition of TNFα production by LPS-stimulated adherent murine peritoneal macrophages [2]	effect of OdDHL alone on ConA induced hPBMC proliferation ([3]; 6.25 μM, alone)	inhibition of ConA induced proliferation of human PBMC (cpm), in words ([3]; ConA 1 μg/ml)	IC50 ([3]; human PBMC source B) [µM]	IC50 ([3]; human PBMC source C) [µM]	IC50 ([3]; human PBMC source D) [µM]	inhibition of release of IL-2 from hPBMC stimulated via CD3 and CD28, in words ([4]; listed as OdDHL)	inhibition of release of IL-2 from hPBMC stimulated via CD3 and CD28, in words [4]
CCCCCCCCCC(=O)CC(=O)N[C@H]1CCOC1=O [Example 6]	inhibiting	inhibiting	inactive	inhibited proliferation of human PBMC	60	7	34	inhibited in a dose dependent manner the release of IL-2; also recorded: inhibits the release of IL-2	–
CCCCCCCc1[nH]c2ccccc2c(=O)c1O [PQS]	–	–	–	–	–	–	–	–	but not PQS, inhibits the release of IL-2
